Measured values reported in US9695155B2, “Herbicidal substituted pyrimidinyloxy benzene compounds” (E. I. DU PONT DE NEMOURS AND COMPANY, priority 2013, dated 2017).

Assays:
blackgrass [1] = assay: Test D preemergence; type: in vivo, Alopecurus myosuroides
From the text: (§1) Seeds of plant species selected from bluegrass (annual bluegrass, Poa annua), blackgrass (Alopecurus myosuroides), canarygrass (littleseed canarygrass, Phalaris minor), chickweed (common chickweed, Stellaria media), galium (catchweed bedstraw, Galium aparine), bromegrass, downy (downy bromegrass, Bromus tectorum), field poppy (Papaver rhoeas), field violet (Viola arvensis), green foxtail (Setaria viridis), deadnettle (henbit deadnettle, Lamium amplexicaule), Italian ryegrass (Lolium multiflorum), kochia (Kochia scoparia), lambsquarters (Chenopodium album), oilseed rape (Brassica napus), pigweed (Amaranthus retroflexus), chamomile (scentless chamomile, Matricaria inodora), Russian thistle (Salsola kali), speedwell (bird's-eye speedwell, Veronica persica), spring barley (Hordeum vulgare), spring wheat (Triticum aestivum), wild buckwheat (Polygonum convolvulus), wild mustard (Sinapis arvensis), wild oat (Avena fatua), wild radish (Raphanus raphanistrum), windgrass (Apera spica-venti), winter barley (Hordeum vulgare), and winter wheat (Triticum aestivum) were planted into a silt loam soil and treated preemergence with test chemicals formulated in a non-phytotoxic solvent mixture which included a surfactant.
(§2) At the same time, these species were planted in pots containing Redi-Earth® planting medium (Scotts Company, 14111 Scottslawn Road, Marysville, Ohio 43041) comprising spaghnum peat moss, vermiculite, wetting agent and starter nutrients and treated with postemergence applications of the test chemicals formulated in the same manner. Plants ranged in height from 2 to 18 cm (1- to 4-leaf stage). Treated plants and controls were maintained in a controlled growth environment for 7 to 21 days after which time all species were compared to controls and visually evaluated. Plant response ratings, summarized in Table D, are based on a scale of 0 to 100 where 0 is no effect and 100 is complete control. A dash (-) response means no test result.

lambsquarters = assay: Test D preemergence; type: in vivo, Chenopodium album
From the text: as §1, §2

pigweed = assay: Test D preemergence; type: in vivo, Amaranthus retroflexus
Outline: (§3)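 Values are 0–100 visual control ratings (0 none, 100 complete) given 7–21 days after application. Soil for preemergence was silt loam; postemergence plants stood 2–18 cm tall.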

spring barley = assay: Test D preemergence; type: in vivo, Hordeum vulgare
Outline: as §3

winter barley = assay: Test D preemergence; type: in vivo, Hordeum vulgare
Outline: as §3

wild oat = assay: Test D preemergence; type: in vivo, Avena fatua
Outline: as §3

bluegrass = assay: Test D postemergence; type: in vivo, Poa annua
Outline: as §3

blackgrass [2] = assay: Test D postemergence; type: in vivo, Alopecurus myosuroides
Outline: as §3

Italian ryegrass = assay: Test D postemergence; type: in vivo, Lolium multiflorum
From the text: as §1, §2

[3] = 16 g ai/ha, scale 0 (no effect) to 100 (complete control)
[4] = Postemergence, 62 g ai/ha, scale 0 to 100 (0 no effect, 100 complete control)
[5] = Postemergence, 31 g ai/ha, scale 0 to 100 (0 no effect, 100 complete control)
[6] = Postemergence, 125 g ai/ha, scale 0 to 100 (0 no effect, 100 complete control)
[7] = postemergence, 16 g ai/ha, scale 0 to 100, 0 no effect, 100 complete control

SMILES: FCc1cccc(Oc2ncc(Cl)cn2)c1-n1cc(I)cn1 [Compound 245]
- Plant response rating, Blackgrass (blackgrass [1]; [3]): 0
- Plant response rating, Blackgrass (blackgrass [1]; 31 g ai/ha, scale 0-100): 0
- Plant response rating, Blackgrass (blackgrass [1]; 62 g ai/ha, scale 0-100): 10
- Plant response rating, Blackgrass (blackgrass [1]; 125 g ai/ha, scale 0-100): 65
- Plant response rating, Lambsquarters (lambsquarters; [3]): 85
- Plant response rating, Lambsquarters (lambsquarters; 31 g ai/ha, scale 0-100): 100
- Plant response rating, Lambsquarters (lambsquarters; 62 g ai/ha, scale 0-100): 100
- Plant response rating, Lambsquarters (lambsquarters; 125 g ai/ha, scale 0-100): 100
- Plant response rating, Pigweed (pigweed; [3]): 98
- Plant response rating, Pigweed (pigweed; 31 g ai/ha, scale 0 (no effect) to 100 (complete control)): 100
- Plant response rating, Pigweed (pigweed; 125 g ai/ha, scale 0-100): 100
- Plant response rating, Barley, Spring (spring barley; [3]): 0
- Plant response rating, Barley, Spring (spring barley; 31 g ai/ha, scale 0-100): 5
- Plant response rating, Barley, Spring (spring barley; 62 g ai/ha, scale 0-100): 15
- Plant response rating, Barley, Spring (spring barley; 125 g ai/ha, scale 0-100): 35
- Plant response rating, Barley, Winter (winter barley; [3]): 0
- Plant response rating, Barley, Winter (winter barley; 31 g ai/ha, scale 0-100): 35
- Plant response rating, Barley, Winter (winter barley; 62 g ai/ha, scale 0-100): 25
- Plant response rating, Barley, Winter (winter barley; 125 g ai/ha, scale 0-100): 40
- Plant response rating, Oat, Wild (wild oat; [3]): 0
- Plant response rating, Oat, Wild (wild oat; 31 g ai/ha, scale 0-100): 5
- Plant response rating, Oat, Wild (wild oat; 62 g ai/ha, scale 0-100): 20
- Plant response rating, Oat, Wild (wild oat; 125 g ai/ha, scale 0-100): 15
- Plant response rating, Bluegrass (bluegrass; [4]): 15
- Plant response rating, Bluegrass (bluegrass; [5]): 20
- Plant response rating, Bluegrass (bluegrass; [6]): 30
- Plant response rating, Bluegrass (bluegrass; [7]): 10
- Plant response rating, Blackgrass (blackgrass [2]; [4]): 20
- Plant response rating, Blackgrass (blackgrass [2]; [5]): 10
- Plant response rating, Blackgrass (blackgrass [2]; [6]): 25
- Plant response rating, Blackgrass (blackgrass [2]; [7]): 5
- Plant response rating, Ryegrass, Italian (Italian ryegrass; 16 g ai/ha, scale 0-100): 0
- Plant response rating, Ryegrass, Italian (Italian ryegrass; 31 g ai/ha, scale 0 to 100 (0 no effect, 100 complete control)): 10
- Plant response rating, Ryegrass, Italian (Italian ryegrass; 62 g ai/ha, scale 0 to 100 (0 no effect, 100 complete control)): 20
- Plant response rating, Ryegrass, Italian (Italian ryegrass; 125 g ai/ha, scale 0 to 100 (0 no effect, 100 complete control)): 20
